The text below walks through data of patent EP0966414B1, “TRIARYLMETHYL FREE RADICALS AS IMAGE ENHANCING AGENTS” (Amersham Health AS, priority 1997, dated 1998).

A short description of the data set: ESR spectrum linewidth in aqueous solution. The data set is classed as physicochemical. The settings on record: 100 G, singlet. The procedure: For the method according to the invention the preferred radicals are those which have relatively few transitions, e.g. less than 15, preferably less than 10, in their ESR spectra and radicals having narrow linewidth ESR transitions, e.g. up to 500 mG, preferably less than 150 mG, especially less than 60 mG and particularly less than 25mG, are especially preferred. (The linewidths referred to are conveniently the intrinsic linewidths (full width at half maximum in the absorption spectrum) under ambient conditions).

The substance “Tris (8-carboxyl-2,2,6,6-tetra (2-(1-hydroxy-2.2-d2-ethyl))-benzo[1,2-d:4,5-d']bis(1,3)dithiole -4-yl)methyl sodium salt [Example 21]” registered an ESR linewidth (1.0 mM in H2O) of 70 mg.

For the setting “2.5 mM aqueous solution”, “Tris (8-carboxymethylthio-2,2,6,6-(2-(1-hydroxyethyl)) benzo[1,2-d:4,5-d']bis(1,3)dithiole-4-yl)methyl sodium salt [Example 9]” displayed an ESR linewidth of 195 mg.

“Tris(8-[N,N-bis(2,3-dihydroxypropyl)aminocarbonylmethylthiol-2,2,6,6-tetra-(2-(1-hydroxyethyl))benzo[1,2-d:4,5-d'] bis(1,3)dithiole-4-yl)methyl [Example 11]”: the ESR linewidth (1.0 mM in H2O) is 274 mg.

In turn, “Tris(8-carboxy-2,2,6,6-tetra-(hydroxyethyl)benzo[1,2-d:4,5-d']bis(1,3)dithiole-4-yl)methyl sodium salt [Example 7]” displayed an ESR linewidth (1.0 mM in H2O) of 160 mg. Substance “Tris(8-carboxyl-2,2,6,6-tetra(hydroxyethyl)-benzo[1,2-d:4,5-d']bis(1,3)dithiole-4-yl)methyl N,N-bis(1,2-dihydroxyprop-3-yl)-acetamid-2-yl-ester [Example 23]” came in with an ESR linewidth (1.0 mM in H2O) of 226 mg.
